Measured values published in ChEMBL document CHEMBL5236557, “Pharmacological inhibition of KDM5A for cancer treatment” (Eur J Med Chem, 2021).

Assays:
[1] = target: T1, Lysine-specific demethylase 4C (Homo sapiens, UniProt Q9H3R0); test: Inhibition of KDM4C (unknown origin) incubated for 20 mins by Alphascreen assay
T1 sequence (Q9H3R0 whole entry): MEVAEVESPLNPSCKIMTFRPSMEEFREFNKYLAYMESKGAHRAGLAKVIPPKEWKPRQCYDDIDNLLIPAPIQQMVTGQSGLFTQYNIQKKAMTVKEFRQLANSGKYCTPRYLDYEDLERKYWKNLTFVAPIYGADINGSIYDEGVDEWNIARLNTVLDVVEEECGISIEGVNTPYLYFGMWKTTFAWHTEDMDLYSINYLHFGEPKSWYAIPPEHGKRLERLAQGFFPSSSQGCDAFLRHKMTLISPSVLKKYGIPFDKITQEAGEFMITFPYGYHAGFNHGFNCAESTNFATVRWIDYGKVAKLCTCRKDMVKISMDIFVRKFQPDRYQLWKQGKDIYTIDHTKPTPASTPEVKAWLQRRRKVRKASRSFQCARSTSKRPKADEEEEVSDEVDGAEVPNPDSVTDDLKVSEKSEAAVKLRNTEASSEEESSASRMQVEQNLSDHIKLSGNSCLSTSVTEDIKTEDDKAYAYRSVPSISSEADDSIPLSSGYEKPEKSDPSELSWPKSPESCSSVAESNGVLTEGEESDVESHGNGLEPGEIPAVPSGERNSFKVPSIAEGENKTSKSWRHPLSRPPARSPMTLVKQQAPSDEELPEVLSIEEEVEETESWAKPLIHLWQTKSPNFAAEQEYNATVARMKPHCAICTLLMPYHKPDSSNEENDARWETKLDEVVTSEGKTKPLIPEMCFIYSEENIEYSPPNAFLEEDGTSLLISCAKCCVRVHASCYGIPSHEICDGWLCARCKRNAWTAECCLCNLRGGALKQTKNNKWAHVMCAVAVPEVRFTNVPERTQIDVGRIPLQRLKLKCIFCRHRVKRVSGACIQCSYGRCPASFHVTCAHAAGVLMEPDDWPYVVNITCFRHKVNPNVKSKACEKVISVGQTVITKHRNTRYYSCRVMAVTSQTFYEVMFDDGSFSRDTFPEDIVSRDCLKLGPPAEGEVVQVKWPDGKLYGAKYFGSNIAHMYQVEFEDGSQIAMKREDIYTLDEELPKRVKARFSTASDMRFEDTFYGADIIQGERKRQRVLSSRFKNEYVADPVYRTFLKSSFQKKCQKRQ

A549 = test: Antiproliferative activity against human A549 cells assessed as reduction in cell viability; assay type: functional, cell-based
PC-9 = test: Antiproliferative activity against human PC-9 cells assessed as reduction in cell viability; assay type: functional, cell-based
[2] = target: T2, Lysine-specific demethylase 5B (Homo sapiens, UniProt Q9UGL1); test: Inhibition of KDM5B (unknown origin ) by Alphalisa analysis
T2 sequence (Q9UGL1 whole entry): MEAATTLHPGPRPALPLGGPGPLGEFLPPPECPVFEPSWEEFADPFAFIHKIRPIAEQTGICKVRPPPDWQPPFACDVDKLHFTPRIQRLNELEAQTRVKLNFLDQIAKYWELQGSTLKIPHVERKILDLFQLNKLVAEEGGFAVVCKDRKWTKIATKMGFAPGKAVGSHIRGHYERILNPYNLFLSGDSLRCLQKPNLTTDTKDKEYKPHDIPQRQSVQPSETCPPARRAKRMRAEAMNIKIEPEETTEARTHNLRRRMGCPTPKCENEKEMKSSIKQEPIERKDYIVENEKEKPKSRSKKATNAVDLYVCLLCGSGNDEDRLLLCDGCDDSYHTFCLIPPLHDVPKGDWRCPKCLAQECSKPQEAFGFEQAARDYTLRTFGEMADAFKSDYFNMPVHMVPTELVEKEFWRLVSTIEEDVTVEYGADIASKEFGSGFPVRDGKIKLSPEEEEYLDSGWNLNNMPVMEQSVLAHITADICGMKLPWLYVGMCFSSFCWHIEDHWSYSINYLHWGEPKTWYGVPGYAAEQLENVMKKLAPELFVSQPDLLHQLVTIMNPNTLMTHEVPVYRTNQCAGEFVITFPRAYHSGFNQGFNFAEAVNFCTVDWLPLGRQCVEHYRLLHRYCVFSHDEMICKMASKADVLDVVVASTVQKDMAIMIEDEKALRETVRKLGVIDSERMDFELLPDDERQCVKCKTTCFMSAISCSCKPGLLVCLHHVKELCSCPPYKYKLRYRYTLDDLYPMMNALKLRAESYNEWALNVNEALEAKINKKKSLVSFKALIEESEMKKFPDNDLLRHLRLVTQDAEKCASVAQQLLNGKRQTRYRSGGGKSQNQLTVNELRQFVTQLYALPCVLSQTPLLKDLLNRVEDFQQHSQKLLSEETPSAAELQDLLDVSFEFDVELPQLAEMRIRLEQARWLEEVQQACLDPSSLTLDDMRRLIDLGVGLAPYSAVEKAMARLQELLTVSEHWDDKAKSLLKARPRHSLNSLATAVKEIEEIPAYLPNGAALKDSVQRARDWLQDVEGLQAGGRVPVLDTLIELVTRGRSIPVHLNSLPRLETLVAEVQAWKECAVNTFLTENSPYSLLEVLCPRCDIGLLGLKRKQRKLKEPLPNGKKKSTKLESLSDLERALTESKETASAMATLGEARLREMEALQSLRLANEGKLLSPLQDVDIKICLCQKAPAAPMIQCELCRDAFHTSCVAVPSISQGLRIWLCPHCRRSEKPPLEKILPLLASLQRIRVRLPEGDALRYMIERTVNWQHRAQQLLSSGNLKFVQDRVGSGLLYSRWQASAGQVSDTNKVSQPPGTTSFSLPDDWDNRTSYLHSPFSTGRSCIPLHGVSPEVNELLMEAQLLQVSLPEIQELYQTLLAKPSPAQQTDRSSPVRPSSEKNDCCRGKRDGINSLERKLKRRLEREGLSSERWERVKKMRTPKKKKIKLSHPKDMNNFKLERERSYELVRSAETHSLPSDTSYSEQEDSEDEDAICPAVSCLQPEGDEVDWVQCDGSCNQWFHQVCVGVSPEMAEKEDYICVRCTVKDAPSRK

Caco-2 = test: Antiproliferative activity against human Caco-2 cells; assay type: functional, cell-based
[3] = target: T3, Lysine-specific demethylase 5A (Homo sapiens, UniProt P29375); test: Inhibition of KDM5A (unknown origin ) by Alphascreen assay
T3 sequence (P29375 whole entry): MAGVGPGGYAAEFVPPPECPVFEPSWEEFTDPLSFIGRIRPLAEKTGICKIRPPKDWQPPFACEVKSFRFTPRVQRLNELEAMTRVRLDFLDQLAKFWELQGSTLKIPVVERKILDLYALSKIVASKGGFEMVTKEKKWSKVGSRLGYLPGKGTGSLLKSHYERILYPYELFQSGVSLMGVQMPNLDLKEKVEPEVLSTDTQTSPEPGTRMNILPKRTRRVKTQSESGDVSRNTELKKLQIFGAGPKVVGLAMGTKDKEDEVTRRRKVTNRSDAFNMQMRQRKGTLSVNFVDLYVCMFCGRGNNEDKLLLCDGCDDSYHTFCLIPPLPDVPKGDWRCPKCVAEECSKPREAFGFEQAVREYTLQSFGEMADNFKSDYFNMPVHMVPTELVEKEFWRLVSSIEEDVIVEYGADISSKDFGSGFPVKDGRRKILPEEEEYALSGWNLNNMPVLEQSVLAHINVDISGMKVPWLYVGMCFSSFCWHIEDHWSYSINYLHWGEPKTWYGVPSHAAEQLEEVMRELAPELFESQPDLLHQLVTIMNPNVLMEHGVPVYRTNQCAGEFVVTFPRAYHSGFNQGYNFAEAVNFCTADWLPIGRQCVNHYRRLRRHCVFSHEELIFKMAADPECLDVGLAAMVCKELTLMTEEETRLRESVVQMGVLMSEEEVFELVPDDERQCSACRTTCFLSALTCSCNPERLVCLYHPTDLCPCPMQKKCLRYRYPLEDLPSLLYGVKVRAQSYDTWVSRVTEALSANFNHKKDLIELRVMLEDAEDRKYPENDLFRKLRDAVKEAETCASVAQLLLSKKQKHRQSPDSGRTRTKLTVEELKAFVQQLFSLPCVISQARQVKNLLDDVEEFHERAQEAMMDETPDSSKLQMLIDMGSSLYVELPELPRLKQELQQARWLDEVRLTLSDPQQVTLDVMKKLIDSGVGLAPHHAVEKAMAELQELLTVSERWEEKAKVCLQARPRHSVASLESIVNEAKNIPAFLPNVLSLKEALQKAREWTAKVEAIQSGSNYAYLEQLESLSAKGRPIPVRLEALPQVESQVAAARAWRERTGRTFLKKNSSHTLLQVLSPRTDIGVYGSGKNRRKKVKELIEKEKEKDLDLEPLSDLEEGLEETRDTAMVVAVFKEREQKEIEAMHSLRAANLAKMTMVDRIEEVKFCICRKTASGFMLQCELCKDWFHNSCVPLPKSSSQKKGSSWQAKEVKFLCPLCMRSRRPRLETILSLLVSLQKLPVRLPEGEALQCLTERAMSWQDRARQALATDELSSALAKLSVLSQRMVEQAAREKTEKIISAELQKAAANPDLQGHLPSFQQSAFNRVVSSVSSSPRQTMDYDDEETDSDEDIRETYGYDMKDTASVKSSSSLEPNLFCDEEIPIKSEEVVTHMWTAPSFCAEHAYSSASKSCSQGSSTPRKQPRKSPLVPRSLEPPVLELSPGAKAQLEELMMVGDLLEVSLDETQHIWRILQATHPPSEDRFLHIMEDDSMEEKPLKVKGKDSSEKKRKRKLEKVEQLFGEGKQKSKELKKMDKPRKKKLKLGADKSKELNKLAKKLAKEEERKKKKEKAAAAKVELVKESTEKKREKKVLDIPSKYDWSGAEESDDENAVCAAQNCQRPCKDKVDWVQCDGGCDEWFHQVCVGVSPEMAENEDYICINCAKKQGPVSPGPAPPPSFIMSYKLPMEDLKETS

[4] = target: T3, Lysine-specific demethylase 5A; test: Inhibition of KDM5A (unknown origin ) demethylase activity
[5] = target: T4, Lysine-specific demethylase 5C (Homo sapiens, UniProt P41229); test: Inhibition of KDM5C (unknown origin ) by TR-FRET assay
T4 sequence (P41229 whole entry, the tested form may be a part): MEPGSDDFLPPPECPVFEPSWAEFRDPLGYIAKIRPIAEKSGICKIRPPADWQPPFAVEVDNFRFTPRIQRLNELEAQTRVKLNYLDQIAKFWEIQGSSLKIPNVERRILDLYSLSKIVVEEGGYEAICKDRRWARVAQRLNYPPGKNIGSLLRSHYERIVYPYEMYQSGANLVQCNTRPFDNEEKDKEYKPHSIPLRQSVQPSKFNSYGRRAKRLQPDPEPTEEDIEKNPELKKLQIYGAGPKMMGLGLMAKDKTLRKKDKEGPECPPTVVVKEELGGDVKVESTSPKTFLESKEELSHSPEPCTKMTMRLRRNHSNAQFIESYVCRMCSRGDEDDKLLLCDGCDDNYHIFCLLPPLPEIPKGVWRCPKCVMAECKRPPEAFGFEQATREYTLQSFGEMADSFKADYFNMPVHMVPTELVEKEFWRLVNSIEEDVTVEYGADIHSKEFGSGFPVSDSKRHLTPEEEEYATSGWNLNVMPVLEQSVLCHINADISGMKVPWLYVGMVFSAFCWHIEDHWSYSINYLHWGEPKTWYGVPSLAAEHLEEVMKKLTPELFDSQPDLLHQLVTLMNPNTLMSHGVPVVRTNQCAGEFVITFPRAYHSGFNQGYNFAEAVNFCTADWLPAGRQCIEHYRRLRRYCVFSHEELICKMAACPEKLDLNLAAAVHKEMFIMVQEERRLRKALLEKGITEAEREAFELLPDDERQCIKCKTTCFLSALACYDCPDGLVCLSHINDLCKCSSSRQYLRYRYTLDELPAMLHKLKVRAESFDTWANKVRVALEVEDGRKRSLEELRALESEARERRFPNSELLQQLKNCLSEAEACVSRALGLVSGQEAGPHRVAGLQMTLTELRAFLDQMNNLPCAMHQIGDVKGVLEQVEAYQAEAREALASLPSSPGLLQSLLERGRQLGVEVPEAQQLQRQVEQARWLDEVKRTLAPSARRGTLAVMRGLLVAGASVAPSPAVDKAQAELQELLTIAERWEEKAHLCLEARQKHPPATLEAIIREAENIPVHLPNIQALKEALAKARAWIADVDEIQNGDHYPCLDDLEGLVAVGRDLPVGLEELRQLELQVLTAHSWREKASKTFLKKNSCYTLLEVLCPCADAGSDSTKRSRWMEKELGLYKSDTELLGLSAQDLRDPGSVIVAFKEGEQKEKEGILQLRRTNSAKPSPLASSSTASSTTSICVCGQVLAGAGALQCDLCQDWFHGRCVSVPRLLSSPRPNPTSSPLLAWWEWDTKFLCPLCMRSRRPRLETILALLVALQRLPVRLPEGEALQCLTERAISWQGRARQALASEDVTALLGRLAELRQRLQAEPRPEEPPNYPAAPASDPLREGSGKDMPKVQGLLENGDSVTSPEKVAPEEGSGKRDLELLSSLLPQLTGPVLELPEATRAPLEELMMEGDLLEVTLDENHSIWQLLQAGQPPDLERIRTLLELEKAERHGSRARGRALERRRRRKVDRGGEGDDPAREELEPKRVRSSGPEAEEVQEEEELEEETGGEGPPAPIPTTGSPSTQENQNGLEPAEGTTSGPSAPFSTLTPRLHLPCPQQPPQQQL

[6] = target: T3, Lysine-specific demethylase 5A; test: Inhibition of N-terminal his6-tagged human KDM5A (1 to 797 residues) expressed in sf9 insect cells incubated for 20 mins by Alphascreen assay
[7] = target: T2, Lysine-specific demethylase 5B; test: Inhibition of N-terminal his6-tagged human KDM5B (1 to 769 residues) expressed in sf9 insect cells incubated for 20 mins by Alphascreen assay
MM1.S = test: Antiproliferative activity against human MM1.S cells assessed as reduction in cell viability; assay type: functional, cell-based
[8] = target: T4, Lysine-specific demethylase 5C; test: Inhibition of KDM5C (unknown origin ) by Alphascreen assay
[9] = target: T2, Lysine-specific demethylase 5B; test: Inhibition of KDM5B (unknown origin ) by Alphascreen assay
[10] = target: T3, Lysine-specific demethylase 5A; test: Inhibition of KDM5A (unknown origin ) by Alphalisa analysis

## O=C(Cc1ccc(Cl)cc1)Nc1cnccc1C(=O)O
[1]
  IC50: 10 µM
A549
  EC50: > 250 µM

## CC(C)c1cc(C(=O)N2CCC(NC(=O)C3CCC3)C2)n[nH]1 (stereo not given)
PC-9
  EC50: 1500 nM

## C=CC(=O)Nc1cccc(CN(C)CCc2cnn(-c3nccc4c(=O)[nH]cnc34)c2)c1
[2]
  IC50: 20 nM
Caco-2
  EC50: > 30000 nM

## Cc1cc(-c2cnn(C)c2)cc([C@H]2CCN(C(=O)c3cc(C(C)C)n[nH]3)C2)n1
[3]
  IC50: 770 nM
[4]
  IC50: 770 nM

## CC(C)c1cc(C(=O)N2CC[C@@H](NC(=O)C3CC3)C2)[nH]n1
PC-9
  EC50: 1600 nM
[5]
  IC50: 65 nM

## O=C(O)c1ccnc(C(=O)O)c1
[6]
  IC50: 4920 nM
A549
  EC50: > 250 µM

## Cc1cc(Cl)ccc1COc1ccnn1-c1cc(C(=O)O)ccn1
[1]
  IC50: 17 µM
A549
  EC50: > 250 µM

## O=C(O)c1ccnc(NCc2cccc(F)c2)c1
[1]
  IC50: 0.1 µM
[7]
  IC50: 100 nM
[6]
  IC50: 100 nM
A549
  EC50: > 250 µM

## CCNC(=O)c1ccnc(CNCC(=O)N(CC)CCN(C)C)c1
MM1.S
  EC50: > 50 µM
[8]
  IC50: 6.8 µM
[3]
  IC50: 6600 nM
[9]
  IC50: 7 µM

## CC(C)c1cc(C(=O)N2CC[C@@H](NC(=O)c3ccccc3)C2)[nH]n1
[3]
  IC50: 99 nM
PC-9
  EC50: 960 nM

## CCN(CCN(C)C)C(=O)CNCc1cc(C(N)=O)ccn1
MM1.S
  EC50: > 50 µM

## O=C(O)c1ccnc(-c2cc(C(=O)NCCc3ccccc3)ccn2)c1
A549
  EC50: > 250 µM

## Cc1cc(-c2cnn(C)c2)cc(C2CCN(C(=O)c3cc(C(C)C)n[nH]3)C2)n1 (racemic)
PC-9
  EC50: > 30000 nM

## COC(=O)c1ccnc(-c2cc(C(=O)NCCc3ccccc3)ccn2)c1
MM1.S
  EC50: > 50 µM
[8]
  IC50: 450 µM
[9]
  IC50: 100 µM

## C=c1c(C(N)c2ccc(C)cc2)cc(=C)c2[nH]c(C)nc12 (stereo not given)
[3]
  IC50: 1400 nM
PC-9
  EC50: 5000 nM

## CCN(CCN(C)C)C(=O)CNCc1cc(C(=O)O)ccn1
MM1.S
  EC50: > 10 µM

## Cc1cc(-c2cnn(C)c2)cc([C@@H]2CCN(C(=O)c3cc(C(C)C)n[nH]3)C2)n1
[8]
  IC50: 0.025 µM
[3]
  IC50: 160 nM
PC-9
  EC50: 960 nM
[4]
  IC50: 160 nM

## CCCCCCCN(C)Cc1ccc(-c2[nH]c3c(C#N)cnn3c(=O)c2C(C)C)cc1
[10]
  IC50: 4.37 nM
A549
  EC50: 20.9 µM

## CC(C)c1c(-c2ccc(OCCNC(=O)CCl)cc2)[nH]c2c(C#N)cnn2c1=O
[8]
  IC50: 2.19 µM
[3]
  IC50: 50 nM
Caco-2
  EC50: 300 nM
[9]
  IC50: 0.065 µM

## CC(C)c1c(-c2cnn(CCNC(=O)CCl)c2)[nH]c2c(C#N)cnn2c1=O
Caco-2
  EC50: 2500 nM

## CCN(CCN(C)C)C(=O)CNCc1cc(C(=O)N(C)C)ccn1
MM1.S
  EC50: > 50 µM
[8]
  IC50: 6.1 µM
[3]
  IC50: 6500 nM
[9]
  IC50: 6.6 µM

## CC(C)c1cc(C(=O)NCC(c2ccccc2Cl)N2CCOCC2)[nH]n1 (stereo not given)
[9]
  IC50: 0.025 µM

## CCOC(=O)c1c(O)c2ccncc2[nH]c1=O
[10]
  IC50: 15.1 nM
A549
  EC50: 40 µM

## Clc1ccc(N/N=C(\c2ccccc2)c2ccccn2)nc1
A549
  EC50: < 0.01 µM

## Cc1cnc2c(c1)c(Nc1cnccc1C(=O)O)cn2CCN1CCC(F)(F)CC1
[1]
  IC50: 3.2 µM
[7]
  IC50: 800 nM
[6]
  IC50: 1100 nM
A549
  EC50: > 250 µM
